What follows are molecules tested on TC32 Ewing sarcoma cells, expressing EWS-FLI1 (assay: Growth inhibition assay, TC32 cells). Settings: ratio of GI50 PC3 to TC32.
Type: cell-based
Protocol: Growth inhibition assay to assess cytotoxicity in ETS vs non-ETS expressing cells. Cells were seeded in clear 96-well plates (VWR, Radnor, PA). Seeding densities were optimized for each cell line to support 5 days of linear growth. Following a 24 hours attachment period, cells in duplicate wells were treated with half-log increments of respective compounds (0 nM and 0.3 nM-10 μM). Working stocks were prepared from an initial 10 mM drug stock diluted in either 100% ethanol or dimethyl sulfoxide (DMSO). All wells contained a final concentration of 0.1% (v/v) respective organic solvent. Immediately following treatment, cell viability was measured for vehicle control (Day 0) wells. Cell viability was measured in the remaining wells after 72 hours of incubation with compound or vehicle control (Day 3).
Percent viability, relative to the initial cell seeding concentration, was calculated by ((TreatmentDay3−Vehicle ControlDay0)/(Vehicle ControlDay3−Vehicle ControlDay0))×100. Percent cell viability was plotted as a function of compound concentration (Log [M]) and the data were fit using a 3-parameter non-linear model with fixed Hill slope constant and 4-parameter non-linear model with variable Hill slope constant. The model with the best curve fit was used to estimate the GI50 in GraphPad Prism 7.0 software (GraphPad Software, La Jolla, CA). The 3-parameter equation used was Y=Bottom+(Top−Bottom)/(1+10[…]((X−Log[IC50]))). The 4-parameter equation used was Y=Bottom+(Top−Bottom)/(1+10[…]((Log[IC50]−X)*Hillslope)). Top and Bottom are plateaus in the units of the Y-axis (response). IC50 is the response (Y-axis) halfway between Top and Bottom plateaus.
All compounds were tested at least once in multi-well replicates and each experiment included one a control compound (i.e., MTM) to ensure the stable response of the cell lines. The selectivity index was estimated by determining the ratio of GI50 estimates between ETS fusion negative and ETS fusion positive cell lines.

Point of comparison: `C=CCON=C(C(O)C(C)O)C(OC)C1Cc2cc3cc(OC4CC(OC5CC(O)C(O)C(C)O5)C(O)C(C)O4)c(C)c(O)c3c(O)c2C(=O)C1OC1CC(OC2CC(OC3CC(C)(O)C(O)C(C)O3)C(O)C(C)O2)C(O)C(C)O1` (centres unmarked) [MTM (10)], “PC:TC32 (cellular selectivity)” value 1.10. Against it:
- CON=C(C(O)C(C)O)C(OC)C1Cc2cc3cc(OC4CC(OC5CC(O)C(O)C(C)O5)C(O)C(C)O4)c(C)c(O)c3c(O)c2C(=O)C1OC1CC(OC2CC(OC3CC(C)(O)C(O)C(C)O3)C(O)C(C)O2)C(O)C(C)O1 (centres unmarked) [MTM (1)] — higher, 1.66
- COC(C(=NOCc1ccccc1)C(O)C(C)O)C1Cc2cc3cc(OC4CC(OC5CC(O)C(O)C(C)O5)C(O)C(C)O4)c(C)c(O)c3c(O)c2C(=O)C1OC1CC(OC2CC(OC3CC(C)(O)C(O)C(C)O3)C(O)C(C)O2)C(O)C(C)O1 (centres unmarked) [MTM (2)] — lower, 1.08
- COC(C(=NO)C(O)C(C)O)C1Cc2cc3cc(OC4CC(OC5CC(O)C(O)C(C)O5)C(O)C(C)O4)c(C)c(O)c3c(O)c2C(=O)C1OC1CC(OC2CC(OC3CC(C)(O)C(O)C(C)O3)C(O)C(C)O2)C(O)C(C)O1 (centres unmarked) [MTM (3)] — higher, 1.86
- CCON=C(C(O)C(C)O)C(OC)C1Cc2cc3cc(OC4CC(OC5CC(O)C(O)C(C)O5)C(O)C(C)O4)c(C)c(O)c3c(O)c2C(=O)C1OC1CC(OC2CC(OC3CC(C)(O)C(O)C(C)O3)C(O)C(C)O2)C(O)C(C)O1 (centres unmarked) [MTM (4)] — higher, 1.15
- COC(C(=NOC[Si](C)(C)C)C(O)C(C)O)C1Cc2cc3cc(OC4CC(OC5CC(O)C(O)C(C)O5)C(O)C(C)O4)c(C)c(O)c3c(O)c2C(=O)C1OC1CC(OC2CC(OC3CC(C)(O)C(O)C(C)O3)C(O)C(C)O2)C(O)C(C)O1 (centres unmarked) [MTM (5E)] — higher, 1.28
- COC(C(=NOC[Si](C)(C)C)C(O)C(C)O)C1Cc2cc3cc(OC4CC(OC5CC(O)C(O)C(C)O5)C(O)C(C)O4)c(C)c(O)c3c(O)c2C(=O)C1OC1CC(OC2CC(OC3CC(C)(O)C(O)C(C)O3)C(O)C(C)O2)C(O)C(C)O1 (centres unmarked) [MTM (5Z)] — lower, 0.68
- COC(C(=NOCC(C)C)C(O)C(C)O)C1Cc2cc3cc(OC4CC(OC5CC(O)C(O)C(C)O5)C(O)C(C)O4)c(C)c(O)c3c(O)c2C(=O)C1OC1CC(OC2CC(OC3CC(C)(O)C(O)C(C)O3)C(O)C(C)O2)C(O)C(C)O1 (centres unmarked) [MTM (7E)] — lower, 1.04
- COC(C(=NOCC(C)C)C(O)C(C)O)C1Cc2cc3cc(OC4CC(OC5CC(O)C(O)C(C)O5)C(O)C(C)O4)c(C)c(O)c3c(O)c2C(=O)C1OC1CC(OC2CC(OC3CC(C)(O)C(O)C(C)O3)C(O)C(C)O2)C(O)C(C)O1 (centres unmarked) [MTM (7Z)] — higher, 1.15
- COC(C(=NOCc1ccc([N+](=O)[O-])cc1)C(O)C(C)O)C1Cc2cc3cc(OC4CC(OC5CC(O)C(O)C(C)O5)C(O)C(C)O4)c(C)c(O)c3c(O)c2C(=O)C1OC1CC(OC2CC(OC3CC(C)(O)C(O)C(C)O3)C(O)C(C)O2)C(O)C(C)O1 (centres unmarked) [MTM (11)] — higher, 1.30
- COc1ccc(CON=C(C(O)C(C)O)C(OC)C2Cc3cc4cc(OC5CC(OC6CC(O)C(O)C(C)O6)C(O)C(C)O5)c(C)c(O)c4c(O)c3C(=O)C2OC2CC(OC3CC(OC4CC(C)(O)C(O)C(C)O4)C(O)C(C)O3)C(O)C(C)O2)cc1 (centres unmarked) [MTM (14E)] — higher, 2.05
- COc1ccc(CON=C(C(O)C(C)O)C(OC)C2Cc3cc4cc(OC5CC(OC6CC(O)C(O)C(C)O6)C(O)C(C)O5)c(C)c(O)c4c(O)c3C(=O)C2OC2CC(OC3CC(OC4CC(C)(O)C(O)C(C)O4)C(O)C(C)O3)C(O)C(C)O2)cc1 (centres unmarked) [MTM (14Z)] — higher, 2.91
- COC(C(=NOC(C)(C)C)C(O)C(C)O)C1Cc2cc3cc(OC4CC(OC5CC(O)C(O)C(C)O5)C(O)C(C)O4)c(C)c(O)c3c(O)c2C(=O)C1OC1CC(OC2CC(OC3CC(C)(O)C(O)C(C)O3)C(O)C(C)O2)C(O)C(C)O1 (centres unmarked) [MTM (15E)] — higher, 1.87
- COC(C(=NOC(C)(C)C)C(O)C(C)O)C1Cc2cc3cc(OC4CC(OC5CC(O)C(O)C(C)O5)C(O)C(C)O4)c(C)c(O)c3c(O)c2C(=O)C1OC1CC(OC2CC(OC3CC(C)(O)C(O)C(C)O3)C(O)C(C)O2)C(O)C(C)O1 (centres unmarked) [MTM (15Z)] — higher, 2.25
